In ChEMBL document CHEMBL4825762, “Identification, Synthesis, and Characterization of a Major Circulating Human Metabolite of TRPV4 Antagonist GSK2798745” (ACS Med Chem Lett, 2021):
pIC50: −log10 of the molar value. The source made the active and inactive calls. The rule behind the calls is not given here.

Key:
[1] = biological target: T1, Short transient receptor potential channel 4 (Homo sapiens) (UniProt Q9UBN4); experiment: Antagonist activity at human TRPC4 at <= 30 uM; conditions: dose microM <=30
T1 sequence (whole entry): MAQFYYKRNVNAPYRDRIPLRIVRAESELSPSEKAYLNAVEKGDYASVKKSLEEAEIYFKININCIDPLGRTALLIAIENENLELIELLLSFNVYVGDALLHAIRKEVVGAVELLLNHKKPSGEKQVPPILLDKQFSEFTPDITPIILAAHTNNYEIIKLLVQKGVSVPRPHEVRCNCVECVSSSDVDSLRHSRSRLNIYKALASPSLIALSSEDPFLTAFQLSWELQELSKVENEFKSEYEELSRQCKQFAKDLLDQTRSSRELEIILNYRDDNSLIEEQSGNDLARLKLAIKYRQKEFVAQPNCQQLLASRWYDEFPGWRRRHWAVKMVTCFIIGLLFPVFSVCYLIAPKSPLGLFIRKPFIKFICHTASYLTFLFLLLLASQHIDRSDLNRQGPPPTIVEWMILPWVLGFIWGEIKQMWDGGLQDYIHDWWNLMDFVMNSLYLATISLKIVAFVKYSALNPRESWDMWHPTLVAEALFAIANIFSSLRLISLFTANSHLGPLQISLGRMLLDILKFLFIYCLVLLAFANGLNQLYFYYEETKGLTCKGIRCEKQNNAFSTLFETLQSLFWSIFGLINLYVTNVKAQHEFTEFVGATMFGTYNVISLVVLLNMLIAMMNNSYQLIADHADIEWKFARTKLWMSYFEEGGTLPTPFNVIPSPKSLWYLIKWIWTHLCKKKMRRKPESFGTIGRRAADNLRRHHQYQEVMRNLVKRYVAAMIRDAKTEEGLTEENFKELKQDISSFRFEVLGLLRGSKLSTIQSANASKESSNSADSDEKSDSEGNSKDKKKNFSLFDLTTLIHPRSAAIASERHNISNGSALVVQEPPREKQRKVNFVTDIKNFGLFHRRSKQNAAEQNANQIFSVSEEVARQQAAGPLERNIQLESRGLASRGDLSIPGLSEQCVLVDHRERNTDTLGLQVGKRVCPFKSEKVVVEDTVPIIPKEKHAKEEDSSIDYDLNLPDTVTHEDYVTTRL

[2] = biological target: T2, Short transient receptor potential channel 5 (Homo sapiens) (UniProt Q9UL62); experiment: Antagonist activity at human TRPC5 at <= 30 uM; conditions: dose microM <=30
T2 sequence (whole entry): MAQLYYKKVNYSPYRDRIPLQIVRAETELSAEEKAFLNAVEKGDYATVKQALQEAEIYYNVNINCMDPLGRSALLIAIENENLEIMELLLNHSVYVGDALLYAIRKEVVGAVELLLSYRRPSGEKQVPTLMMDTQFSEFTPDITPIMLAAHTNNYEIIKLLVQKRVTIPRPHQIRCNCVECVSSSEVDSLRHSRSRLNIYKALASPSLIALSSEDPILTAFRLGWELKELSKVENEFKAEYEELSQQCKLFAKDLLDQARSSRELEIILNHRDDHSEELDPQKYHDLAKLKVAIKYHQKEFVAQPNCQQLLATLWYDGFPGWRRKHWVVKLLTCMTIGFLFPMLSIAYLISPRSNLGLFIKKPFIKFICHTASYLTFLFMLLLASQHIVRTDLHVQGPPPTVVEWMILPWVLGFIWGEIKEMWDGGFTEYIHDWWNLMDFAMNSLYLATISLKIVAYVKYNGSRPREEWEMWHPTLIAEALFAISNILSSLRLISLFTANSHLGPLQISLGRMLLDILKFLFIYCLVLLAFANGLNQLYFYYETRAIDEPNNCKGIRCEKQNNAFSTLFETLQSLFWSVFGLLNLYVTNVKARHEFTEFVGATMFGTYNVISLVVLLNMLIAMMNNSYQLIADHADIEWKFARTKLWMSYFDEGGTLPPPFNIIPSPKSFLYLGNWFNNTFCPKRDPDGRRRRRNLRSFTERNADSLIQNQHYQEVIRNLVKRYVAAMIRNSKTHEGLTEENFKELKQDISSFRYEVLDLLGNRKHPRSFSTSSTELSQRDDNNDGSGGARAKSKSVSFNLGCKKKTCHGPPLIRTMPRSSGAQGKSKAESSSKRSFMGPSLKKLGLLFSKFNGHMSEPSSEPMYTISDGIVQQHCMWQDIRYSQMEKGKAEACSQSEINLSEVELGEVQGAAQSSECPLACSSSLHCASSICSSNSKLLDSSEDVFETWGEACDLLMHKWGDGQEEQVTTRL

[3] = biological target: Transient receptor potential cation channel subfamily V member 4 (Homo sapiens, UniProt Q9HBA0); experiment: Antagonist activity at human TRPV4
Chain of Transient receptor potential cation channel subfamily V member 4 (Q9HBA0 whole entry): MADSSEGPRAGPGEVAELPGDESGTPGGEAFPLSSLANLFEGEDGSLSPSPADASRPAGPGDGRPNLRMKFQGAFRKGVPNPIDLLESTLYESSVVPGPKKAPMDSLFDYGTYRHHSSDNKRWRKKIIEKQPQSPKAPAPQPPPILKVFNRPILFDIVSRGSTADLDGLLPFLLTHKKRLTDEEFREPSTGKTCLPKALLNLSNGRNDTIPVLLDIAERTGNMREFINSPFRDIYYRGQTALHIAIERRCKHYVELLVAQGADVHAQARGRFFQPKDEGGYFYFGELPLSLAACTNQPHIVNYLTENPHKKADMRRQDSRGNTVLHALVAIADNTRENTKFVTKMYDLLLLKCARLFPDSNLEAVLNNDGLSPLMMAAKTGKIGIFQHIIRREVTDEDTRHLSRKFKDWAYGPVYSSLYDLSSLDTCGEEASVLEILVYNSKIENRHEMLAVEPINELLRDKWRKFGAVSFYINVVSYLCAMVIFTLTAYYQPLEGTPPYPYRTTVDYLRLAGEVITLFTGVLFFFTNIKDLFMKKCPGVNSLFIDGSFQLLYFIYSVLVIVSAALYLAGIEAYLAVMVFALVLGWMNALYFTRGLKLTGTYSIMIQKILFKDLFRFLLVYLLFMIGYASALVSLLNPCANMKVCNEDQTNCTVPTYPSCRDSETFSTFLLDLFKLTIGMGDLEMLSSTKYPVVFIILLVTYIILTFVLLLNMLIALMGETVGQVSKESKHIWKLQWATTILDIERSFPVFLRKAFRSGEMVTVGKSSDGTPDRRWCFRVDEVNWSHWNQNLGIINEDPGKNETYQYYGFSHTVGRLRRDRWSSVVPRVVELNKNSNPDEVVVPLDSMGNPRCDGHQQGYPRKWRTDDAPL

[4] = biological target: Transient receptor potential cation channel subfamily A member 1 (Homo sapiens) (UniProt O75762); experiment: Antagonist activity at human TRPA1 at <= 30 uM; conditions: dose microM <=30
[5] = biological target: Transient receptor potential cation channel subfamily V member 1 (Homo sapiens) (UniProt Q8NER1); experiment: Antagonist activity at human TRPV1 at <= 30 uM; conditions: dose microM <=30
[6] = biological target: Transient receptor potential cation channel subfamily M member 2 (Homo sapiens) (UniProt O94759); experiment: Antagonist activity at human TRPM2 at <= 30 uM; conditions: dose microM <=30
Chain of Transient receptor potential cation channel subfamily M member 2 (Homo sapiens) (O94759 whole entry): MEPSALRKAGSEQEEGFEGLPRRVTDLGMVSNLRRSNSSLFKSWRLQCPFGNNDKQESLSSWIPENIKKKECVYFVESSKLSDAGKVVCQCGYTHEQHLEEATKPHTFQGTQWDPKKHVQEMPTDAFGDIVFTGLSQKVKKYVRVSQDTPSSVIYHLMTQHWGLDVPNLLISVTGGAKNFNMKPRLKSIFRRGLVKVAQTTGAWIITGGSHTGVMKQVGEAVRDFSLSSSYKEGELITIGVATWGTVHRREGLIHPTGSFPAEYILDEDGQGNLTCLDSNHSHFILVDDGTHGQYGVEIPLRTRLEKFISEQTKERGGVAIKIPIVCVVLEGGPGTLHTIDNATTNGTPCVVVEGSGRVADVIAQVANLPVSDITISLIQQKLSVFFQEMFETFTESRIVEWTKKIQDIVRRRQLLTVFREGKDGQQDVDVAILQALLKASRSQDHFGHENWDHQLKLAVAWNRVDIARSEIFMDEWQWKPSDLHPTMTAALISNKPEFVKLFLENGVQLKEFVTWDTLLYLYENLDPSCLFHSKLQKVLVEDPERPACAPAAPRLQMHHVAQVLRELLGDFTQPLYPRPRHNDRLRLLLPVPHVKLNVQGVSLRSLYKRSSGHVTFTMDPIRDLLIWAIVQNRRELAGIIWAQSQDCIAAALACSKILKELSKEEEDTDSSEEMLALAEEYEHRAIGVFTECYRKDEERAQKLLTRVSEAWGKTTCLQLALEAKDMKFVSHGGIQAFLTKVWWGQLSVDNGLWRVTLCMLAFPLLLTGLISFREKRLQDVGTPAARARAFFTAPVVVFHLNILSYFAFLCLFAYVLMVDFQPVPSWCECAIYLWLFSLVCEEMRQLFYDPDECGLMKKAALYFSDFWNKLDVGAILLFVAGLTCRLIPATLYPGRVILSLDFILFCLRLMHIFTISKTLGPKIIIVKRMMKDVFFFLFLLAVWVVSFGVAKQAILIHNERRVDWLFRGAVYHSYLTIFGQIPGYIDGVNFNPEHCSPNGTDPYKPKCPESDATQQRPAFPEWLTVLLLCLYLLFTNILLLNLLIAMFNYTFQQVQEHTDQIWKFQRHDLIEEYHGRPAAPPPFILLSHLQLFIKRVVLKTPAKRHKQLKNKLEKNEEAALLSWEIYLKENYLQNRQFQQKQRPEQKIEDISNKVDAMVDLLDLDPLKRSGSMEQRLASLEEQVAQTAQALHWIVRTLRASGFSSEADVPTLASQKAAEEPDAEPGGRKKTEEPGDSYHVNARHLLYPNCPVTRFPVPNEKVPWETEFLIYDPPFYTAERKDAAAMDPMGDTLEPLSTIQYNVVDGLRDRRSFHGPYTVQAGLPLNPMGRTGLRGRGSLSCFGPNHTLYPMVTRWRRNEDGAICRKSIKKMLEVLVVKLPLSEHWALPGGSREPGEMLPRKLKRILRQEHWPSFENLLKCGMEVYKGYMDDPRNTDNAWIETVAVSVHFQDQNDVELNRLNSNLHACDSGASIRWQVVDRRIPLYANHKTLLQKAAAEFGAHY

[7] = biological target: Transient receptor potential cation channel subfamily M member 4 (Homo sapiens) (UniProt Q8TD43); experiment: Antagonist activity at human TRPM4 at <= 30 uM; conditions: dose microM <=30
[8] = biological target: Transient receptor potential cation channel subfamily M member 8 (Homo sapiens) (UniProt Q7Z2W7); experiment: Antagonist activity at human TRPM8 at <= 30 uM; conditions: dose microM <=30
Chain of Transient receptor potential cation channel subfamily M member 8 (Homo sapiens) (Q7Z2W7 whole entry, looked up): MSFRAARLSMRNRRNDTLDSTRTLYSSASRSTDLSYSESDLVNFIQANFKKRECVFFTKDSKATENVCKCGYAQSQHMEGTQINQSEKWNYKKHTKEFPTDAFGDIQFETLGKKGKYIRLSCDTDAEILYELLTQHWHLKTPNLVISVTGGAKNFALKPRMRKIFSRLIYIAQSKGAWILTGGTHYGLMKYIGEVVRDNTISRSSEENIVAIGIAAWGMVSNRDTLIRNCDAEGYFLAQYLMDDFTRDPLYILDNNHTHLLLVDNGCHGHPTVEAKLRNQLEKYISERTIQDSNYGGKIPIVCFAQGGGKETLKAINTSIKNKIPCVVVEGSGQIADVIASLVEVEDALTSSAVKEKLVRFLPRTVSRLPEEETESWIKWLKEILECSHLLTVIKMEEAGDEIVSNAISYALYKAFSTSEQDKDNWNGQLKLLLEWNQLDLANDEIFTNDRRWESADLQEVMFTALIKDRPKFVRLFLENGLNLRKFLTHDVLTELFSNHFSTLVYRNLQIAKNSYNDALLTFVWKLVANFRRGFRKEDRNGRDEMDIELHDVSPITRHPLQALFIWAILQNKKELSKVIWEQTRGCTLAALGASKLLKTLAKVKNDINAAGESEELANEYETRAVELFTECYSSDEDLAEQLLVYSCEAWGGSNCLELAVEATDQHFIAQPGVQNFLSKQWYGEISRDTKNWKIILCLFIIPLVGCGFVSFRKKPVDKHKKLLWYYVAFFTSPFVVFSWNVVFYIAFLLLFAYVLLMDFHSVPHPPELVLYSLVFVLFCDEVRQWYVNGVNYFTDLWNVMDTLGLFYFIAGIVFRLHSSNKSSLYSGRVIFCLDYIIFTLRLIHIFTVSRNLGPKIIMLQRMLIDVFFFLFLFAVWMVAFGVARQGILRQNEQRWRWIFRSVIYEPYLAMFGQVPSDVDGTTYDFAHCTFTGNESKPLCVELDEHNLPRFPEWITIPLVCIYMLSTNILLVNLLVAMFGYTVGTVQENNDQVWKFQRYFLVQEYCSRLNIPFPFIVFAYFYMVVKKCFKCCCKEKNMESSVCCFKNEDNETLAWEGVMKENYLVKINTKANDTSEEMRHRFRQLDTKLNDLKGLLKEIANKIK

[9] = biological target: T3, Short transient receptor potential channel 3 (Homo sapiens) (UniProt Q13507); experiment: Antagonist activity at human TRPC3 at <= 30 uM; conditions: dose microM <=30
T3 sequence (whole entry): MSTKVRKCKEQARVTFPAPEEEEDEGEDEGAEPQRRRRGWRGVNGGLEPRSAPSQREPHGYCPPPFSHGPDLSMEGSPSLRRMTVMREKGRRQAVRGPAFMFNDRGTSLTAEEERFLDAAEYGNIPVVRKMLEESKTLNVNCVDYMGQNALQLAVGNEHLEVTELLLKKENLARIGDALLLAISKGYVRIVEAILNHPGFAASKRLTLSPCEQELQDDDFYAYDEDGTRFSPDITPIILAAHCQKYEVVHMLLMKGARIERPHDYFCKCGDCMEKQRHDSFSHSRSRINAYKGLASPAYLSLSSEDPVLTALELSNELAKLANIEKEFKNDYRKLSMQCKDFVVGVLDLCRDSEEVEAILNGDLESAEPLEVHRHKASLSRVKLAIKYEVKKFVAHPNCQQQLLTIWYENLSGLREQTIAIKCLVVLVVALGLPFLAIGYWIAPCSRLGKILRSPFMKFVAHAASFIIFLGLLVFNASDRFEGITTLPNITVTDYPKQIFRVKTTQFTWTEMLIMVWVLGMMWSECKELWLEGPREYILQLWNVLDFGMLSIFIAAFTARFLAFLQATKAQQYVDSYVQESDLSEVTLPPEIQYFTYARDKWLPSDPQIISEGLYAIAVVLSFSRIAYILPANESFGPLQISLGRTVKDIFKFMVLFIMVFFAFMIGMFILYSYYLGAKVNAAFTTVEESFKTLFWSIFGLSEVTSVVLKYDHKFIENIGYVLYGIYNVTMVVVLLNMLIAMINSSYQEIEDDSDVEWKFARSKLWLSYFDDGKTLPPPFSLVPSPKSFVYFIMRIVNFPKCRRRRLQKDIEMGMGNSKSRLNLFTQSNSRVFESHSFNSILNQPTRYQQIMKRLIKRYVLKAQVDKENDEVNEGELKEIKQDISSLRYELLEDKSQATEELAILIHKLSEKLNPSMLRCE

[10] = biological target: T4, Short transient receptor potential channel 6 (Homo sapiens) (UniProt Q9Y210); experiment: Antagonist activity at human TRPC6 at <= 30 uM; conditions: dose microM <=30
T4 sequence (whole entry): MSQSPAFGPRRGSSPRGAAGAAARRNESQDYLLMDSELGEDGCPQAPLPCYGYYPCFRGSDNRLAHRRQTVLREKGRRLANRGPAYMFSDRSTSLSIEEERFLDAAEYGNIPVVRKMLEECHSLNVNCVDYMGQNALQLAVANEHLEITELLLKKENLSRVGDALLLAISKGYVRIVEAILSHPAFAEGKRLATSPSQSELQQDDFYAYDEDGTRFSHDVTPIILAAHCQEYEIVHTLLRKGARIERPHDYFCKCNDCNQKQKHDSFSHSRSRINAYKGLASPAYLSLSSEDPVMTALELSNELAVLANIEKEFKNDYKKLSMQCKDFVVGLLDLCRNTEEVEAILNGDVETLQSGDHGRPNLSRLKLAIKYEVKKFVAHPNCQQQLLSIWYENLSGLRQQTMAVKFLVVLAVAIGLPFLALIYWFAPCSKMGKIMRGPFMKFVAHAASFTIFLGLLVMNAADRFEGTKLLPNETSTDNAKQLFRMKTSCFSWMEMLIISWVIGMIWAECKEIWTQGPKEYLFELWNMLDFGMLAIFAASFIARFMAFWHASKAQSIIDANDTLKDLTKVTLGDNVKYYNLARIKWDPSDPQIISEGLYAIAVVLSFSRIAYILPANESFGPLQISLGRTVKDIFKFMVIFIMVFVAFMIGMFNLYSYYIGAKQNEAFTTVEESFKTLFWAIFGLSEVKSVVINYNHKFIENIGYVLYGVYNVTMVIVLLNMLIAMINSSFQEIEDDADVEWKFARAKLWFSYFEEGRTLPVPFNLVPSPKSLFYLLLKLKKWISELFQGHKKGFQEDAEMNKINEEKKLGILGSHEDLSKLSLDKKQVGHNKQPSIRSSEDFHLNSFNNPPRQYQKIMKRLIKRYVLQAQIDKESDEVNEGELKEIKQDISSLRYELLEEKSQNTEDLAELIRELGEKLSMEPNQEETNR

Cytochrome P450 3A4 = Cytochrome P450 3A4 (Homo sapiens, UniProt P08684); experiment: Inhibition of CYP3A4 (unknown origin) at <= 10 uM; assay type: ADME
[11] = biological target: Voltage-gated inwardly rectifying potassium channel KCNH2 (Homo sapiens, UniProt Q12809); experiment: Inhibition of human ERG at <= 10 uM
Chain of Voltage-gated inwardly rectifying potassium channel KCNH2 (Q12809 whole entry): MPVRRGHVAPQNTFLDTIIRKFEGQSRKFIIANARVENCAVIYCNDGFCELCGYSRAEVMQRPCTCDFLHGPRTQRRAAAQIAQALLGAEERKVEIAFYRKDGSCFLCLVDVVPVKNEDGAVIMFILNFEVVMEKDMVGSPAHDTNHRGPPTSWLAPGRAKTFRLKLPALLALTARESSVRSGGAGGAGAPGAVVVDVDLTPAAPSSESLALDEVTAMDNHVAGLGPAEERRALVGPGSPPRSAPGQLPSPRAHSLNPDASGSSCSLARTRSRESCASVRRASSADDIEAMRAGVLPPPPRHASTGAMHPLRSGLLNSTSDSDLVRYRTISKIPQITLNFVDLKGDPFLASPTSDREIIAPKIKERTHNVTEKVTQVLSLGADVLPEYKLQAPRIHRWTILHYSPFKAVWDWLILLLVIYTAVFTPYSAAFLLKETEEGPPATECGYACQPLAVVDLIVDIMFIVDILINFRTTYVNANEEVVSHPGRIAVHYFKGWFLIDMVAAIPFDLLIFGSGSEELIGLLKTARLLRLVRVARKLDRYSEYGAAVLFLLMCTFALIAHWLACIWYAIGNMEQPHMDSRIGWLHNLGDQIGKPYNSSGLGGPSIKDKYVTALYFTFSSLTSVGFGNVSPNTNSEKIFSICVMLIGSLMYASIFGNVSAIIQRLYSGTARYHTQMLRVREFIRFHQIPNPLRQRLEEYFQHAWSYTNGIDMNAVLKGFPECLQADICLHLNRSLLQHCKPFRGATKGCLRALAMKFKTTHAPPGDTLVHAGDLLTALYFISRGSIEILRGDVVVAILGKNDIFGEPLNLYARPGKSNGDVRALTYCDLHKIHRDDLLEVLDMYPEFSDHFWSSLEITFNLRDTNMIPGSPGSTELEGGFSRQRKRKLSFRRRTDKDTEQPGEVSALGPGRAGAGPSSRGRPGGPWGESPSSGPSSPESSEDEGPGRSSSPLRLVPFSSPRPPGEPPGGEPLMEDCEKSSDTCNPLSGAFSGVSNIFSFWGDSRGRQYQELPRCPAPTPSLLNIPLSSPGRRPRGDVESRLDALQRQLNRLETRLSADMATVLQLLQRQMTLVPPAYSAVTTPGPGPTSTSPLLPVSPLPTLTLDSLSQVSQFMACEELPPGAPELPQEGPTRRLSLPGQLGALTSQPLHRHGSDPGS

[12] = Chromatographic hydrophobicity index, log D of the compound; assay type: physicochemical
[13] = Permeability of the compound; assay type: ADME; conditions: not told; read-out: permeability

| SMILES | Activity [1] | Activity [2] | pIC50 [3] | Activity [4] | Activity [5] | Activity [6] | Activity [7] | Activity [8] | Activity [9] | Activity [10] | inhibition (INH) (Cytochrome P450 3A4) | inhibition (INH) [11] | chromatographic logD [12] | Papp [13] [×10⁻⁶ cm/s] |
| --- | --- | --- | --- | --- | --- | --- | --- | --- | --- | --- | --- | --- | --- | --- |
| CC(C)(O)c1cnc(N2C[C@@]3(CC[C@@H](O)[C@](C)(Cn4cnc5ccc(C#N)cc54)C3)OC2=O)cn1 | inactive | inactive | 7.25 | inactive | inactive | inactive | inactive | inactive | inactive | inactive | Not Active | Not Active | 2.6 | 3.2 |
| CC(C)(O)c1cnc(N2C[C@@]3(CCC[C@](C)(Cn4cnc5ccc(C#N)cc54)C3)OC2=O)cn1 [GSK2798745] |  |  | 8.70 |  |  |  |  |  |  |  |  |  | 4 | 38.5 |
